Source: patent US11873298B2, “Compounds and uses thereof” (JANSSEN PHARMACEUTICA NV, priority 2017, dated 2024)

How the values were obtained:
Type in all cases: cell-based
Ole1 = target: T1, Ole1 (Saccharomyces cerevisiae, UniProt P21147); experiment: Growth inhibition of yeast strain expressing Ole1 as sole desaturase; settings: yeast strain expressing Ole1 as sole desaturase
T1 construct: expressed in transfected cells; host or cells: S. cerevisiae ole1Δ strain (W303 pdr1Δ pdr3Δ background), plasmid pRS316 with TDH3 promoter and CYC1 terminator
T1 sequence (P21147 1-510): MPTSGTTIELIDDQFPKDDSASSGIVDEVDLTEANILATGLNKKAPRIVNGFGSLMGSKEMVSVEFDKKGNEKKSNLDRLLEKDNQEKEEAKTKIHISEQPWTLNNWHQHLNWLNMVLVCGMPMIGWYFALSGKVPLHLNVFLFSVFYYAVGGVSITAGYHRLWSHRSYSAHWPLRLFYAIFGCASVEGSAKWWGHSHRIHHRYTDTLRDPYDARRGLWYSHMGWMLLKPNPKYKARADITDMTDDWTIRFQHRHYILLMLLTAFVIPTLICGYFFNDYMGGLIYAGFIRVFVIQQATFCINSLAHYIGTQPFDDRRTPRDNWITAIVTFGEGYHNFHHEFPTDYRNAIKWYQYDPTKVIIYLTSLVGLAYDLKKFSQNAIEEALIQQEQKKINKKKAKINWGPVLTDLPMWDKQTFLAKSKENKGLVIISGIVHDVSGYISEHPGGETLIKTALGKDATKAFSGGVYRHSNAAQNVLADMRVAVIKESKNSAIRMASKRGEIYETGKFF
Procedure, shortened: (§1)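 OD600 growth read-out. ole1Δ yeast, pdr1Δ pdr3Δ, with Ole1/SCD1/SCD5 on a plasmid; SX-Ura media throughout; 2× cell density 0.02 in CSM-Galactose; DMSO compound dilutions; humidified 30° C.; Ole1 stopped at 24 h, SCD1/SCD5 at 40 h.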

SCD5 = target: T2, SCD5 (Homo sapiens, UniProt Q86SK9); experiment: Growth inhibition of humanized yeast strain expressing SCD5 as sole desaturase; settings: humanized yeast strain expressing SCD5
T2 construct: host or cells: S. cerevisiae ole1Δ strain (W303 pdr1Δ pdr3Δ background), plasmid pRS316 with TDH3 promoter and CYC1 terminator
T2 sequence (Q86SK9 1-330): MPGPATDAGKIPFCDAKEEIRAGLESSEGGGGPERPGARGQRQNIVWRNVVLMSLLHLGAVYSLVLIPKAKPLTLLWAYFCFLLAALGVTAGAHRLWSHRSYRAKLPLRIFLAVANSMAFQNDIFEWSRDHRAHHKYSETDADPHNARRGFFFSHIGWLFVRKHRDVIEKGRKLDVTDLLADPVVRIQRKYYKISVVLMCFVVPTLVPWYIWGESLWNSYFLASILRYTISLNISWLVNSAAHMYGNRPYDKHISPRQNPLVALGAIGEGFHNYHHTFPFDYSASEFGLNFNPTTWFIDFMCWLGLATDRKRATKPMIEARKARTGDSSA
Procedure, shortened: as §1

SCD1 = target: T3, SCD1 (Homo sapiens, UniProt O00767); experiment: Growth inhibition of humanized yeast strain expressing SCD1 as sole desaturase; settings: humanized yeast strain expressing SCD1
T3 construct: host or cells: S. cerevisiae ole1Δ strain (W303 pdr1Δ pdr3Δ background), plasmid pRS316 with TDH3 promoter and CYC1 terminator
T3 sequence (O00767 1-359): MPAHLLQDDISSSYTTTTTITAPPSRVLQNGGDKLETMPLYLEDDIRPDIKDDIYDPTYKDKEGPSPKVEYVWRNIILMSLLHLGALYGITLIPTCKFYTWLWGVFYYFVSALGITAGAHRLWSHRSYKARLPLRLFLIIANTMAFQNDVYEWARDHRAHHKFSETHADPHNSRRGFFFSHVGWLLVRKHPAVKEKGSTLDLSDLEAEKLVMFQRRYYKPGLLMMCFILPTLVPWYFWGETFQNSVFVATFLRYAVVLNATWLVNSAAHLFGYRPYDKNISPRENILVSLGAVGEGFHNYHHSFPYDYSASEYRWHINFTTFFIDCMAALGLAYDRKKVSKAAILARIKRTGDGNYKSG
Procedure, shortened: as §1

Compound | IC50 (Ole1) [µM] | OLE1 % Max Inhibition (Ole1) [%] | IC50 (SCD5) [µM] | SCD5 % Max Inhibition (SCD5) [%] | IC50 (SCD1) [µM] | SCD1 % Max Inhibition (SCD1) [%]
Cc1ncc2ccc(-c3noc(C4CCN(C(=O)CNC(=O)c5ccccc5)CC4)n3)cn12 [Compound 215] | > 45 | 48.68 | > 45 | 78.96 | > 45 | 88.23
Cc1ncc2ccc(-c3noc(C4CCN(C(=O)C5CC(=O)N(c6ccccc6)C5)CC4)n3)cn12 (centres unmarked) [Compound 216] | 35.1 | 61.84 | > 45 | 75.59 | > 45 | 83.82
CCOc1ccc(-c2noc(N3CCC(C(=O)N4CCO[C@@H](c5ccccc5)C4)CC3)n2)cc1OC [Compound 217] | > 45 | 10.39 | > 45 | 12.62 | 36.9 | 57.90
CCOc1ccc(-c2noc(N3CCC(C(=O)N4CCO[C@H](c5ccccc5)C4)CC3)n2)cc1OC [Compound 218] | > 45 | 4.63 | > 45 | 25.15 | > 45 | 48.31
Cc1nn(C)c2cc(-c3noc(N4CCN(C(=O)CN5Cc6ccccc6C5=O)CC4)n3)ccc12 [Compound 219] | > 45 | 3.50 | > 45 | 89.83 | > 45 | 95.22
O=C(C1CC(=O)N(c2ccccc2)C1)N1CCC(c2nc(-c3ccc4c(c3)COC4)no2)CC1 (centres unmarked) [Compound 220] | > 45 | 3.10 | > 45 | 13.65 | > 45 | 87.27
COc1ccc(-c2nccc(C3CCN(C(=O)CNC(=O)c4ccccc4)CC3)n2)cc1OC [Compound 221] | > 45 | 113.54 | > 45 | 93.18 | > 45 | 100.56
Cc1nn(C)c2cc(-c3noc(C4CCN(C(=O)CNC(=O)c5ccsc5)CC4)n3)ccc12 [Compound 222] | > 45 | 3.59 | > 45 | 1.92 | > 45 | 40.42
O=C(CN1Cc2ccccc2C1=O)N1CCC(c2nc(-c3ccc4c(c3)COC4)no2)CC1 [Compound 223] | > 45 | 2.22 | 41 | 67.37 | 40.6 | 68.23
CCOc1ccc(-c2noc(N3CCN(C(=O)CN4Cc5ccccc5C4=O)CC3)n2)cc1OC [Compound 225] | > 45 | 20.97 | > 45 | 88.95 | > 45 | 94.06
Cc1nn(C)c2cc(-c3noc(C4CCN(C(=O)CNC(=O)c5ccsn5)CC4)n3)ccc12 [Compound 226] | > 45 | 1.24 | > 45 | 0.69 | > 45 | 33.20
Cc1nn(C)c2cc(-c3noc(C4(C)CCN(C(=O)CNC(=O)c5ccccc5)CC4)n3)ccc12 [Compound 227] | > 45 | 1.24 | > 45 | 6.17 | 38.3 | 63.76
CC(C)n1ncc2cc(-c3noc(C4CCN(C(=O)CNC(=O)c5ccccc5)CC4)n3)ccc21 [Compound 228] | > 45 | 21.30 | > 45 | 2.72 | – | 51.80
CC(C)n1cc2cc(-c3noc(C4CCN(C(=O)CNC(=O)c5ccccc5)CC4)n3)ccc2n1 [Compound 229] | > 45 | 89.56 | > 45 | 71.18 | > 45 | 66.51
Cn1c(=O)n(C)c2cc(-c3noc(C4CCN(C(=O)CNC(=O)c5ccccn5)CC4)n3)ccc21 [Compound 230] | > 45 | 2.63 | > 45 | 44.00 | > 45 | 78.48
O=C(C1CC(=O)N(c2ccccc2)C1)N1CCC(c2nc(N3CC4(COC4)C3)no2)CC1 (centres unmarked) [Compound 231] | > 45 | 29.53 | > 45 | 3.11 | > 45 | 80.00
Cc1nn(C)c2cc(-c3nsc(C4CCN(C(=O)CNC(=O)c5ccccn5)CC4)n3)ccc12 [Compound 232] | > 45 | 4.20 | 41.1 | 51.17 | > 45 | 81.04
Cn1c(=O)n(C)c2cc(-c3noc(C4CCN(C(=O)CNC(=O)c5cccnc5)CC4)n3)ccc21 [Compound 233] | > 45 | 18.46 | > 45 | 74.91 | > 45 | 73.65
CCOc1ccc(-c2noc(C3CCN(C(=O)[C@H]4CCN(C(=O)c5ccccc5)C4)CC3)n2)cc1OC [Compound 234] | > 45 | 84.80 | > 45 | 76.83 | > 45 | 68.91
CCOc1ccc(-c2noc(C3CCN(C(=O)C4CN(c5ccccc5)C(=O)CO4)CC3)n2)cc1OC (centres unmarked) [Compound 235] | > 45 | 84.04 | > 45 | 87.47 | > 45 | 74.46
Cc1nn(C)c2cc(-c3noc(C4CCN(C(=O)C5CN(C(=O)c6ccccc6)C5)CC4)n3)ccc12 [Compound 236] | > 45 | 8.46 | > 45 | 3.14 | > 45 | 77.23
CCOc1ccc(-c2noc(C3CCN(C(=O)C4CN(C(=O)c5ccccc5)C4)CC3)n2)cc1OC [Compound 237] | > 45 | 18.53 | 32.6 | 45.34 | > 45 | 71.76
Cn1c(=O)n(C)c2cc(-c3noc(C4CCN(C(=O)CNC(=O)c5ccncc5)CC4)n3)ccc21 [Compound 238] | > 45 | 4.93 | 30 | 69.63 | > 45 | 70.06
Cc1nn(C)c2cc(-c3noc(C4CCN(C(=O)[C@H]5CCN(C(=O)c6ccccc6)C5)CC4)n3)ccc12 [Compound 239] | > 45 | 29.21 | > 45 | 6.02 | > 45 | 75.58
Cc1nn(C)c2cc(-c3noc(C4CCN(C(=O)[C@H]5CC(=O)N(c6ccccc6)C5)C(C)C4)n3)ccc12 (some centres unmarked) [Compound 240] | > 45 | 4.30 | > 45 | 12.95 | > 45 | 66.85
Cc1nn(C)c2cc(-c3noc(C4CCN(C(=O)[C@H]5CC(=O)N(c6ccccc6)C5)CC4(F)F)n3)ccc12 (some centres unmarked) [Compound 241] | > 45 | 6.15 | > 45 | 16.97 | > 45 | 91.61
